Reference: the NIST ThermoML archive (doi:10.1021/je300945r)
Numbers after ± are expanded uncertainties.

Structure (SMILES): F/C=C/C(F)(F)F [trans-1,3,3,3-tetrafluoropropene]
- mass density (343.15 K, 9736 kPa, Liquid, Vibrating tube method): 1068.9 ± 1.6 kg/m3
- mass density (343.15 K, 10753 kPa, Liquid, Vibrating tube method): 1076.1 ± 1.6 kg/m3
- mass density (343.15 K, 11770 kPa, Liquid, Vibrating tube method): 1082.8 ± 1.6 kg/m3
- mass density (343.15 K, 12788 kPa, Liquid, Vibrating tube method): 1089.2 ± 1.6 kg/m3
- mass density (343.15 K, 15829 kPa, Liquid, Vibrating tube method): 1106.7 ± 1.6 kg/m3
- mass density (343.15 K, 17849 kPa, Liquid, Vibrating tube method): 1117.1 ± 1.6 kg/m3
- mass density (343.15 K, 18851 kPa, Liquid, Vibrating tube method): 1122 ± 1.6 kg/m3
- mass density (343.15 K, 19867 kPa, Liquid, Vibrating tube method): 1126.8 ± 1.6 kg/m3
- mass density (343.15 K, 20877 kPa, Liquid, Vibrating tube method): 1131.4 ± 1.6 kg/m3
- mass density (343.15 K, 21883 kPa, Liquid, Vibrating tube method): 1135.8 ± 1.6 kg/m3
- mass density (343.15 K, 22905 kPa, Liquid, Vibrating tube method): 1140.2 ± 1.6 kg/m3
- mass density (343.15 K, 23913 kPa, Liquid, Vibrating tube method): 1144.3 ± 1.6 kg/m3
- mass density (343.15 K, 24913 kPa, Liquid, Vibrating tube method): 1148.4 ± 1.6 kg/m3
- mass density (343.15 K, 25929 kPa, Liquid, Vibrating tube method): 1152.4 ± 1.6 kg/m3
- mass density (343.15 K, 26933 kPa, Liquid, Vibrating tube method): 1156.2 ± 1.6 kg/m3
- mass density (343.15 K, 27938 kPa, Liquid, Vibrating tube method): 1160 ± 1.6 kg/m3
- mass density (343.15 K, 28947 kPa, Liquid, Vibrating tube method): 1163.6 ± 1.6 kg/m3
- mass density (343.15 K, 29953 kPa, Liquid, Vibrating tube method): 1167.2 ± 1.6 kg/m3
- mass density (343.15 K, 30968 kPa, Liquid, Vibrating tube method): 1170.7 ± 1.7 kg/m3
- mass density (343.15 K, 31987 kPa, Liquid, Vibrating tube method): 1174.2 ± 1.7 kg/m3
- mass density (343.15 K, 32989 kPa, Liquid, Vibrating tube method): 1177.5 ± 1.7 kg/m3
- mass density (343.15 K, 33994 kPa, Liquid, Vibrating tube method): 1180.8 ± 1.7 kg/m3
- mass density (343.16 K, 13798 kPa, Liquid, Vibrating tube method): 1095.3 ± 1.6 kg/m3
- mass density (343.16 K, 14817 kPa, Liquid, Vibrating tube method): 1101.1 ± 1.6 kg/m3
- mass density (343.16 K, 16838 kPa, Liquid, Vibrating tube method): 1112 ± 1.6 kg/m3
- mass density (352.95 K, 306.8 kPa, Gas, isochoric method): 12.346 ± 0.088 kg/m3
- mass density (352.96 K, 306.9 kPa, Gas, isochoric method): 12.346 ± 0.088 kg/m3
- mass density (352.99 K, 522.8 kPa, Gas, isochoric method): 21.739 ± 0.089 kg/m3
- mass density (353 K, 191.9 kPa, Gas, isochoric method): 7.634 ± 0.082 kg/m3
- mass density (353 K, 672 kPa, Gas, isochoric method): 28.571 ± 0.097 kg/m3
- mass density (353 K, 672.1 kPa, Gas, isochoric method): 28.571 ± 0.097 kg/m3
- mass density (353 K, 867.3 kPa, Gas, isochoric method): 38.462 ± 0.11 kg/m3
- mass density (353.01 K, 84.1 kPa, Gas, isochoric method): 3.3 ± 0.081 kg/m3
- mass density (353.01 K, 191.9 kPa, Gas, isochoric method): 7.634 ± 0.082 kg/m3
- mass density (353.01 K, 458.4 kPa, Gas, isochoric method): 19.231 ± 0.089 kg/m3
- mass density (353.01 K, 739.8 kPa, Gas, isochoric method): 32.258 ± 0.1 kg/m3
- mass density (353.02 K, 84.1 kPa, Gas, isochoric method): 3.3 ± 0.081 kg/m3
- mass density (353.02 K, 739.8 kPa, Gas, isochoric method): 32.258 ± 0.1 kg/m3
- mass density (353.03 K, 950.8 kPa, Gas, isochoric method): 43.478 ± 0.12 kg/m3
- mass density (353.14 K, 30961 kPa, Liquid, Vibrating tube method): 1149 ± 1.6 kg/m3
- mass density (353.15 K, 2236 kPa, Liquid, Vibrating tube method): 936.2 ± 1.7 kg/m3
- mass density (353.15 K, 9793 kPa, Liquid, Vibrating tube method): 1035.4 ± 1.6 kg/m3
- mass density (353.15 K, 12814 kPa, Liquid, Vibrating tube method): 1058.8 ± 1.6 kg/m3
- mass density (353.15 K, 15825 kPa, Liquid, Vibrating tube method): 1078.4 ± 1.6 kg/m3
- mass density (353.15 K, 16834 kPa, Liquid, Vibrating tube method): 1084.4 ± 1.6 kg/m3
- mass density (353.15 K, 18850 kPa, Liquid, Vibrating tube method): 1095.7 ± 1.6 kg/m3
- mass density (353.15 K, 19865 kPa, Liquid, Vibrating tube method): 1101 ± 1.6 kg/m3
- mass density (353.15 K, 21883 kPa, Liquid, Vibrating tube method): 1111 ± 1.6 kg/m3
- mass density (353.15 K, 22889 kPa, Liquid, Vibrating tube method): 1115.7 ± 1.6 kg/m3
- mass density (353.15 K, 24907 kPa, Liquid, Vibrating tube method): 1124.7 ± 1.6 kg/m3
- mass density (353.15 K, 25928 kPa, Liquid, Vibrating tube method): 1129.2 ± 1.6 kg/m3
- mass density (353.15 K, 26934 kPa, Liquid, Vibrating tube method): 1133.3 ± 1.6 kg/m3
- mass density (353.15 K, 27950 kPa, Liquid, Vibrating tube method): 1137.5 ± 1.6 kg/m3
- mass density (353.15 K, 28953 kPa, Liquid, Vibrating tube method): 1141.4 ± 1.6 kg/m3
- mass density (353.15 K, 29957 kPa, Liquid, Vibrating tube method): 1145.2 ± 1.6 kg/m3
- mass density (353.15 K, 31977 kPa, Liquid, Vibrating tube method): 1152.7 ± 1.6 kg/m3
- mass density (353.15 K, 32983 kPa, Liquid, Vibrating tube method): 1156.3 ± 1.6 kg/m3
- mass density (353.15 K, 33998 kPa, Liquid, Vibrating tube method): 1159.9 ± 1.6 kg/m3
- mass density (353.16 K, 2681 kPa, Liquid, Vibrating tube method): 945.9 ± 1.7 kg/m3
- mass density (353.16 K, 3704 kPa, Liquid, Vibrating tube method): 964.9 ± 1.7 kg/m3
- mass density (353.16 K, 4723 kPa, Liquid, Vibrating tube method): 980.5 ± 1.7 kg/m3
- mass density (353.16 K, 5740 kPa, Liquid, Vibrating tube method): 994 ± 1.7 kg/m3
- mass density (353.16 K, 6749 kPa, Liquid, Vibrating tube method): 1005.9 ± 1.7 kg/m3
- mass density (353.16 K, 7775 kPa, Liquid, Vibrating tube method): 1016.7 ± 1.6 kg/m3
- mass density (353.16 K, 8789 kPa, Liquid, Vibrating tube method): 1026.5 ± 1.6 kg/m3
- mass density (353.16 K, 10794 kPa, Liquid, Vibrating tube method): 1043.6 ± 1.6 kg/m3
- mass density (353.16 K, 11799 kPa, Liquid, Vibrating tube method): 1051.4 ± 1.6 kg/m3
- mass density (353.16 K, 13815 kPa, Liquid, Vibrating tube method): 1065.7 ± 1.6 kg/m3
- mass density (353.16 K, 14816 kPa, Liquid, Vibrating tube method): 1072.2 ± 1.6 kg/m3
- mass density (353.16 K, 17837 kPa, Liquid, Vibrating tube method): 1090.2 ± 1.6 kg/m3
- mass density (353.16 K, 20878 kPa, Liquid, Vibrating tube method): 1106.1 ± 1.6 kg/m3
- mass density (353.16 K, 23896 kPa, Liquid, Vibrating tube method): 1120.3 ± 1.6 kg/m3
- mass density (362.94 K, 86.6 kPa, Gas, isochoric method): 3.3 ± 0.079 kg/m3
- mass density (362.94 K, 316.2 kPa, Gas, isochoric method): 12.346 ± 0.082 kg/m3
- mass density (362.94 K, 316.3 kPa, Gas, isochoric method): 12.346 ± 0.082 kg/m3
- mass density (362.95 K, 473.2 kPa, Gas, isochoric method): 18.868 ± 0.085 kg/m3
- mass density (362.96 K, 197.6 kPa, Gas, isochoric method): 7.634 ± 0.08 kg/m3
- mass density (362.96 K, 473.2 kPa, Gas, isochoric method): 18.868 ± 0.085 kg/m3
- mass density (362.96 K, 540 kPa, Gas, isochoric method): 21.739 ± 0.088 kg/m3
- mass density (362.96 K, 695.3 kPa, Gas, isochoric method): 28.571 ± 0.093 kg/m3
- mass density (362.97 K, 899.7 kPa, Gas, isochoric method): 38.462 ± 0.1 kg/m3
- mass density (362.97 K, 987.6 kPa, Gas, isochoric method): 43.478 ± 0.12 kg/m3
- mass density (362.98 K, 766.3 kPa, Gas, isochoric method): 32.258 ± 0.097 kg/m3
- mass density (362.98 K, 987.6 kPa, Gas, isochoric method): 43.478 ± 0.12 kg/m3
- mass density (372.89 K, 557 kPa, Gas, isochoric method): 21.739 ± 0.085 kg/m3
- mass density (372.9 K, 89.1 kPa, Gas, isochoric method): 3.3 ± 0.077 kg/m3
- mass density (372.9 K, 325.6 kPa, Gas, isochoric method): 12.346 ± 0.08 kg/m3
- mass density (372.9 K, 557 kPa, Gas, isochoric method): 21.739 ± 0.085 kg/m3
- mass density (372.91 K, 203.3 kPa, Gas, isochoric method): 7.634 ± 0.077 kg/m3
- mass density (372.92 K, 792.3 kPa, Gas, isochoric method): 32.258 ± 0.094 kg/m3
- mass density (372.93 K, 488 kPa, Gas, isochoric method): 18.868 ± 0.082 kg/m3
- mass density (372.95 K, 1023.8 kPa, Gas, isochoric method): 43.478 ± 0.11 kg/m3
- mass density (372.95 K, 1023.9 kPa, Gas, isochoric method): 43.478 ± 0.11 kg/m3
- mass density (372.96 K, 931.7 kPa, Gas, isochoric method): 38.462 ± 0.098 kg/m3
- mass density (372.97 K, 718.5 kPa, Gas, isochoric method): 28.571 ± 0.09 kg/m3
- mass density (372.97 K, 718.6 kPa, Gas, isochoric method): 28.571 ± 0.09 kg/m3
